3 molecules from patent US10022374B2, “Certain protein kinase inhibitors” (Shanghai Fochon Pharmaceutical Co., Ltd., priority 2013, dated 2018) can be followed below.

Assay [1] has as its system HT-29 cells. The experiment in a line: Inhibition of cell proliferation (MTS), HT-29 cells. The format is cell-based. The following applies: Homo sapiens, HT-29, 72 h, HT-29 cells, 5000 cells/well, 72 h, MTS, absorbance 490 nm; read-out: HT29 IC50. The essentials: (§1)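 Cells were seeded at 3000/well (A-375, DMEM) or 5000/well (HT-29, RPMI-1640), each with 10% FBS, and allowed to adhere overnight. Proliferation was measured by MTS absorbance at 490 nm after 2 h, and IC50 was derived from the curves.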

For assay [2], the system named is A-375 cells. The experiment in a line: Inhibition of cell proliferation (MTS), A-375 cells. The following applies: Homo sapiens, A-375, 72 h, A-375 cells, 3000 cells/well, 72 h, MTS, absorbance 490 nm; read-out: A375 IC50. In kind it is cell-based. The essentials:
as §1

For the molecule `Cn1c(=O)c(F)c(Nc2ccc(I)cc2F)c2c(=O)n(C3CC3)nc(-c3cccc(N4CCCS4(=O)=O)c3)c21` [Example 55, 6-cyclopropyl-8-(3-(1,1-dioxidoisothiazolidin-2-yl)phenyl)-3-fluoro-4-((2-fluoro-4-iodophenyl)amino)-1-methylpyrido[2,3-d]pyridazine-2,5(1H,6H)-dione], the values for the IC50 in assay [1] and in assay [2] were 18.7 nM and 8.8 nM, respectively.

With `Cn1nc(-c2cccc(N3CCCS3(=O)=O)c2)c2c(c(Nc3ccc(I)cc3F)c(F)c(=O)n2C)c1=O` [Example 56, 8-(3-(1,1-dioxidoisothiazolidin-2-yl)phenyl)-3-fluoro-4-((2-fluoro-4-iodophenyl)amino)-1,6-dimethylpyrido[2,3-d]pyridazine-2,5(1H,6H)-dione], the IC50 in assay [1] turned out to be 14.1 nM; in assay [2] it was 9.3 nM.

On to `Cc1ccc(Nc2c(C)c(=O)n(C)c3c(C)n[nH]c(=O)c23)c(F)c1` [Reference Compound, 4-((2-fluoro-4-methylphenyl)amino)-1,3,8-trimethylpyrido[2,3-d]pyridazine-2,5(1H,6H)-dione, reference compound], for which the IC50 in assay [1] and in assay [2] was > 1000 nM throughout.

For orientation: IC50 means the point on the concentration scale where inhibition reaches its midpoint.
